Assay [1] relates to Mycobacterium tuberculosis. The experiment in a line: Antitubercular activity against Mycobacterium tuberculosis H37Ra ATCC 25177 assessed as reduction in bacterial growth after 6 to 8 days by green fluorescent protein microplate assay. Type of assay: functional. Particulars: time 6-8 day.
The subject of a further assay is KB. In words: cells. Particulars: Homo sapiens.
In the next assay the test system is Klebsiella pneumoniae. In words: Antibacterial activity against Klebsiella pneumoniae ATCC 700603 by CLSI based microplate assay. The format is functional.
Another assay deals with MCF7. In words: cells. Particulars: Homo sapiens.
The subject of the next assay is NCI-H187. The experiment in a line: cells. Particulars: Homo sapiens.
Another assay relates to Acinetobacter baumannii. The experiment in a line: Antibacterial activity against Acinetobacter baumannii ATCC 19606 by CLSI based microplate assay. Type of assay: functional. Particulars: ATCC 19606 = CIP 70.34 = JCM 6841.
The test system of another assay is Enterococcus faecium. The experiment in a line: Antibacterial activity against Enterococcus faecium ATCC 51559 by CLSI based microplate assay. Type of assay: functional.
The next assay has as its system Candida albicans. The experiment in a line: Antifungal activity against Candida albicans ATCC 90028 by resazurin microplate assay. Type of assay: functional. A general note: Resazurin is reduced to fluorescent resorufin, in cell work by metabolically active cells.
A further assay has as its system Plasmodium falciparum. The experiment in a line: Antimalarial activity against multi drug-resistant Plasmodium falciparum K1 infected in human erythrocytes assessed as inhibition of [G-3H]hypoxanthine uptake preincubated for 24 hrs followed by [G-3H]hypoxanthine addition and measured after 18 hrs by scintillation counting method. The format is functional, organism-based.

In a further assay the test system is Vero. In words: Cytotoxicity against African green monkey Vero cells by green fluorescent protein microplate assay. The format is cell-based. Particulars: Chlorocebus sabaeus.
In another assay the test system is Pseudomonas aeruginosa. In words: Antibacterial activity against Pseudomonas aeruginosa ATCC 15692 by CLSI based microplate assay. Type of assay: functional.
The next assay has as its system Bacillus cereus. In words: Antibacterial activity against Bacillus cereus ATCC 11778 by resazurin microplate assay. The format is functional.
The next assay concerns Escherichia coli. In words: Antibacterial activity against Escherichia coli ATCC 25922 by CLSI based microplate assay. Type of assay: functional.

For 21 molecules, MIC, IC50 and Activity results are on record in ChEMBL document CHEMBL4819078, “Bioactive Dimeric Tetrahydroxanthones with 2,2'- and 4,4'-Axial Linkages from the Entomopathogenic Fungus Aschersonia confluens” (J Nat Prod, 2021).

pIC50: −log10 of the molar value. In brackets after ≈: the same amount, converted by molar mass. Activity calls are given as the source filed them. No cut-off for these calls is given here. Some results are limits rather than exact numbers.

Description for KB: Cytotoxicity against human KB cells assessed as reduction in cell viability by resazurin based fluorescence assay
Description for MCF7: Cytotoxicity against human MCF7 cells assessed as reduction in cell viability by resazurin based fluorescence assay
Description for NCI-H187: Cytotoxicity against human NCI-H187 cells assessed as reduction in cell viability by resazurin based fluorescence assay

On to `CO[C@H]1CC=C2C(=O)c3c(cc(C)c(-c4c(C)cc5c(c4O)C(=O)C4=CC[C@H](OC)[C@H](OC(C)=O)[C@]4(C)O5)c3O)O[C@@]2(C)[C@@H]1O`, for which the MIC (in general, the least concentration at which growth counts as inhibited) worked out at 6.3 µg/mL (≈ 10.2 µM) in [1] and 12.5 µg/mL (≈ 20.1 µM) against Enterococcus faecium. Further, the pIC50 (usually the IC50 on a negative log10 scale, so that one unit is a factor of ten) in the assay with KB was 5.82; in the assay with MCF7, 5.14; in the assay with NCI-H187 it was 6.00; with Plasmodium falciparum, 5.85; in the assay on Vero, 6.05. Further, the result in the assay with Klebsiella pneumoniae, with Acinetobacter baumannii, in the assay on Candida albicans, with Pseudomonas aeruginosa, in the assay on Bacillus cereus and in the assay with Escherichia coli was inactive.
For the molecule `O=C(N[C@H](CO)[C@H](O)c1ccc([N+](=O)[O-])cc1)C(Cl)Cl` [CHLORAMPHENICOL], the MIC against Pseudomonas aeruginosa is 8 µg/mL (≈ 24.8 µM).
Take `CN[C@H](CC(C)C)C(=O)N[C@H]1C(=O)N[C@@H](CC(N)=O)C(=O)N[C@H]2C(=O)N[C@H]3C(=O)N[C@H](C(=O)N[C@H](C(=O)O)c4cc(O)cc(O)c4-c4cc3ccc4O)[C@H](O)c3ccc(c(Cl)c3)Oc3cc2cc(c3O[C@@H]2O[C@H](CO)[C@@H](O)[C@H](O)[C@H]2O[C@H]2C[C@](C)(N)[C@H](O)[C@H](C)O2)Oc2ccc(cc2Cl)[C@H]1O` [VANCOMYCIN]: in the assay with Bacillus cereus, the minimal inhibitory concentration (MIC) amounted to 2 µg/mL (≈ 1.38 µM).
As for `CC1COc2c(N3CCN(C)CC3)c(F)cc3c(=O)c(C(=O)O)cn1c23` (configuration not stated) [OFLOXACIN], the MIC in assay [1] turned out to be 0.4 µg/mL (≈ 1.11 µM).
As to `CC/C(=C(\c1ccccc1)c1ccc(OCCN(C)C)cc1)c1ccccc1` [TAMOXIFEN], the negative logarithm of the IC50 (pIC50) in the assay on MCF7 is 4.72.
`C[C@@H]1[C@H](O)[C@@H](C)/C=C/C=C/C=C/C=C/C=C/C=C/C=C/[C@H](O[C@@H]2O[C@H](C)[C@@H](O)[C@H](N)[C@@H]2O)C[C@@H]2O[C@](O)(C[C@@H](O)C[C@@H](O)[C@H](O)CC[C@@H](O)C[C@@H](O)CC(=O)O[C@H]1C)C[C@H](O)[C@H]2C(=O)O` [AMPHOTERICIN B] came in with an MIC in the assay on Candida albicans of 0.1 µg/mL (≈ 0.108 µM).
Regarding `CC[C@@H](CO)NCCN[C@@H](CC)CO` [ETHAMBUTOL], the MIC in assay [1] is 0.9 µg/mL (≈ 4.4 µM).
For `O[C@@H](c1cc(C(F)(F)F)nc2c(C(F)(F)F)cccc12)[C@H]1CCCCN1` [(S,R)-MEFLOQUINE], in the assay on Plasmodium falciparum, the pIC50 is 7.15.
As to `CN[C@@H]1[C@H](O[C@H]2[C@H](O[C@H]3[C@H](O)[C@@H](O)[C@H](N=C(N)N)[C@@H](O)[C@@H]3N=C(N)N)O[C@@H](C)[C@]2(O)C=O)O[C@@H](CO)[C@H](O)[C@H]1O` [STREPTOMYCIN], the MIC in [1] worked out at 0.3 µg/mL (≈ 0.516 µM).
For `CO[C@H]1[C@H](O)C=C2C(=O)c3c(O)cc(C)c(-c4c(C)cc(O)c5c4O[C@]4(C)C(=CC[C@H](OC)[C@H]4O)C5=O)c3O[C@@]2(C)[C@@H]1O`, the results for the MIC (in [1]; in the assay with Enterococcus faecium) were 25 µg/mL (≈ 42 µM) and greater than 50 µg/mL, respectively. Also, the pIC50 with KB is 4.20; in the assay on MCF7, 4.20; in the assay with NCI-H187, 6.00; in the assay with Plasmodium falciparum, 5.77; in the assay on Vero, 5.66. Also, the result in the assay on Klebsiella pneumoniae, in the assay with Acinetobacter baumannii, in the assay with Candida albicans, in the assay with Pseudomonas aeruginosa, in the assay on Bacillus cereus and with Escherichia coli was inactive.
As for `CO[C@H]1CC=C2C(=O)c3c(O)cc(C)c(-c4c(C)cc(O)c5c4O[C@]4(C)C(=CC[C@H](OC)[C@@H]4O)C5=O)c3O[C@@]2(C)[C@@H]1O`, the figures for the minimum inhibitory concentration (MIC) (in assay [1]; against Enterococcus faecium) were 6.3 µg/mL (≈ 10.9 µM) and greater than 50 µg/mL, respectively. The pIC50 in the assay with KB is 5.33; with MCF7 it was 4.55; in the assay with NCI-H187 it was 5.55; with Plasmodium falciparum it was 5.59; with Vero, 5.38. Besides, the outcome with Klebsiella pneumoniae, in the assay with Acinetobacter baumannii, in the assay on Candida albicans, in the assay with Pseudomonas aeruginosa, in the assay on Bacillus cereus and with Escherichia coli was inactive.
For `CO[C@H]1CC=C2C(=O)c3c(cc(C)c(-c4c(C)cc5c(c4O)C(=O)C4=CC[C@H](OC)[C@H](O)[C@]4(C)O5)c3O)O[C@@]2(C)[C@@H]1O`, the MIC in [1] worked out at 25 µg/mL (≈ 43.2 µM); in the assay with Enterococcus faecium, 12.5 µg/mL (≈ 21.6 µM). In addition, the pIC50 was 5.47 in the assay with KB; less than 4.06 with MCF7; 5.92 in the assay with NCI-H187; 6.00 in the assay on Plasmodium falciparum; 5.62 with Vero. Further, the outcome with Klebsiella pneumoniae, in the assay with Acinetobacter baumannii, in the assay with Candida albicans, with Pseudomonas aeruginosa, with Bacillus cereus and in the assay with Escherichia coli was inactive.
Turning to `CO[C@H]1CC=C2C(=O)c3c(O)cc(C)c(-c4c(C)cc(O)c5c4O[C@]4(C)C(=CC(=O)[C@H](OC)[C@H]4O)C5=O)c3O[C@@]2(C)[C@@H]1O`, the MIC is 12.5 µg/mL (≈ 21.1 µM) in assay [1] and greater than 50 µg/mL in the assay on Enterococcus faecium. Moreover, the pIC50 in the assay with KB was 5.31; in the assay on MCF7, 4.59; in the assay on NCI-H187, 5.77; in the assay with Plasmodium falciparum it was 5.21; in the assay with Vero, 5.38. For the same molecule, the result in the assay on Klebsiella pneumoniae, in the assay on Acinetobacter baumannii, in the assay with Candida albicans, with Pseudomonas aeruginosa, in the assay with Bacillus cereus and in the assay with Escherichia coli was inactive.
Take `Cc1c2ccncc2c(C)c2c1[nH]c1ccccc12` [ELLIPTECINE]: the figures for the negative-log IC50 (pIC50) with KB, with NCI-H187 and in the assay on Vero were 5.21, 5.04 and 5.10, respectively.
Take `NNC(=O)c1ccncc1` [ISONIAZID]: the MIC in assay [1] turned out to be 0.1 µg/mL (≈ 0.729 µM).
For `CO[C@H]1CC=C2C(=O)c3c(cc(C)c(-c4c(C)cc5c(c4O)C(=O)C4=CC[C@H](OC)[C@@H](O)[C@]4(C)O5)c3O)O[C@@]2(C)[C@@H]1O` [ASCHERXANTHONE A], the MIC in [1] was 6.3 µg/mL (≈ 10.9 µM); with Enterococcus faecium, greater than 50 µg/mL. Besides, the pIC50 was 5.49 with KB; 4.77 with MCF7; 6.30 in the assay with NCI-H187; 6.00 with Plasmodium falciparum; 6.05 in the assay with Vero. In addition, the result in the assay with Klebsiella pneumoniae, in the assay with Acinetobacter baumannii, with Candida albicans, with Pseudomonas aeruginosa, in the assay with Bacillus cereus and with Escherichia coli was inactive.
As to `CO[C@H]1[C@H](O)C=C2C(=O)c3c(cc(C)c(-c4c(C)cc5c(c4O)C(=O)C4=CC[C@H](OC)[C@@H](O)[C@]4(C)O5)c3O)O[C@@]2(C)[C@@H]1O`, the MIC in assay [1] is 6.3 µg/mL (≈ 10.6 µM); against Enterococcus faecium, greater than 50 µg/mL. The negative-log IC50 (pIC50) with KB was 5.89; in the assay on MCF7, 4.89; with NCI-H187, 6.00; in the assay on Plasmodium falciparum, 6.22; in the assay on Vero, 5.92. Besides, the outcome in the assay on Klebsiella pneumoniae, in the assay on Acinetobacter baumannii, in the assay on Candida albicans, in the assay with Pseudomonas aeruginosa, in the assay with Bacillus cereus and in the assay with Escherichia coli was inactive.
Consider `CO[C@H]1CC=C2C(=O)c3c(O)cc(C)c(-c4c(C)cc(O)c5c4O[C@]4(C)C(=CC[C@H](OC)[C@H]4O)C5=O)c3O[C@@]2(C)[C@@H]1O`, for which the MIC in assay [1] is 6.3 µg/mL (≈ 10.9 µM); with Enterococcus faecium, greater than 50 µg/mL. Also, the pIC50 with KB is 5.82; with MCF7, 5.12; with NCI-H187, 6.10; with Plasmodium falciparum, 6.05; in the assay with Vero, 5.96. The outcome in the assay with Klebsiella pneumoniae, in the assay with Acinetobacter baumannii, with Candida albicans, with Pseudomonas aeruginosa, in the assay on Bacillus cereus and with Escherichia coli was inactive.
On to `COC1=C[C@]2(C)Oc3c(c(O)cc(C)c3-c3c(C)cc(O)c4c3O[C@]3(C)C(=CC[C@H](OC)[C@H]3O)C4=O)C(=O)[C@@H]2CC1=O`, for which the values for the MIC (in assay [1]; against Enterococcus faecium) were 12.5 µg/mL (≈ 21.7 µM) and greater than 50 µg/mL, respectively. In addition, the pIC50 in the assay with KB is 5.01; in the assay on MCF7 it was 4.75; in the assay on NCI-H187 it was 5.46; with Plasmodium falciparum it was 5.32; with Vero, 5.21. Also, the result with Klebsiella pneumoniae, with Acinetobacter baumannii, in the assay with Candida albicans, in the assay on Pseudomonas aeruginosa, in the assay with Bacillus cereus and in the assay on Escherichia coli was inactive.
For `CO[C@H]1/C=C/O[C@@]2(C)Oc3c(C)c(O)c4c(O)c(c(/C=N/N5CCN(C)CC5)c(O)c4c3C2=O)NC(=O)/C(C)=C\C=C\[C@H](C)[C@H](O)[C@@H](C)[C@@H](O)[C@@H](C)[C@H](OC(C)=O)[C@@H]1C` [RIFAMPIN], the MIC in the assay with Klebsiella pneumoniae is 25 µg/mL (≈ 30.4 µM); with Acinetobacter baumannii, 3.1 µg/mL (≈ 3.77 µM); against Enterococcus faecium, 3.1 µg/mL (≈ 3.77 µM); with Escherichia coli, 6.3 µg/mL (≈ 7.66 µM).
For `CC[C@H]1OC(=O)[C@H](C)[C@@H](O[C@H]2C[C@@](C)(OC)[C@@H](O)[C@H](C)O2)[C@H](C)[C@@H](O[C@@H]2O[C@H](C)C[C@H](N(C)C)[C@H]2O)[C@](C)(O)C[C@@H](C)C(=O)[C@H](C)[C@@H](O)[C@]1(C)O` [ERYTHROMYCIN], the MIC in the assay with Klebsiella pneumoniae was determined as 200 µg/mL (≈ 273 µM); with Acinetobacter baumannii, 12.5 µg/mL (≈ 17 µM); against Pseudomonas aeruginosa it was 32 µg/mL (≈ 43.6 µM); with Escherichia coli, 25 µg/mL (≈ 34.1 µM).
